Among the data in the SangsterLogP compilation are logP values, retold here.

The structures appear in SMILES notation.

By logP is commonly meant a log measure of how a compound divides between an organic and an aqueous phase. Higher therefore signals a more lipophilic compound. Take `CNC(=S)NCCCCC(NC(=O)C(Cc1ccc2ccccc2c1)Cc1cccc2ccccc12)C(=O)NC(CC1CCCCC1)C(O)CC(=O)NCCN1CCOCC1` (stereo unspecified): the logP is 5.46. Take `CNC(=S)NCCCCC(NC(=O)C(Cc1ccccc1)NS(=O)(=O)N(C)C)C(=O)NC(CC1CCCCC1)C(O)CC(=O)NCCN1CCOCC1` (stereo unspecified): the logP is 2.41. Compound `CC(C)CC(NC(=O)CC(O)C(CC(C)C)NC(CCCCNC(=N)N[N+](=O)[O-])NC(=O)C(Cc1ccc2ccccc2c1)Cc1cccc2ccccc12)C(=O)NCc1ccccc1` (stereo unspecified) registered a logP of 5.51.

For the compound `CCC(C)CNC(=O)CC(O)C(CC(C)C)NC(=O)C(CCCCCCNC(=S)NC)NC(=O)C(Cc1ccc2ccccc2c1)Cc1cccc2ccccc12` (stereo unspecified), the logP was 5.64. Compound `N=C(NCC#CCC(NC(=O)C(Cc1cccc2ccccc12)Cc1cccc2ccccc12)C(=O)NC(CC1CCCCC1)C(O)CC(=O)NCCN1CCOCC1)N[N+](=O)[O-]` (stereo unspecified) had a lipophilicity (logP) of 4.73. `CCC(C)CNC(=O)CC(O)C(CC(C)C)NC(=O)C(CCCCn1cccc1)NC(=O)C(CC1=Cc2ccccc2C1)Cc1cccc2ccccc12` (stereo unspecified): the logP was 7.21. With `CCC(C)CNC(=O)CC(O)C(CC(C)C)NC(=O)C(CC#CCNC(C)=O)NC(=O)C(Cc1ccc2ccccc2c1)Cc1cccc2ccccc12` (stereo unspecified) the figure was 5.32; with `CCC(C)CNC(=O)CC(O)C(CC1CCCCC1)NC(=O)C(CCCCNC(=S)NC)NC(=O)C(Cc1ccc2ccccc2c1)Cc1cccc2ccccc12` (stereo unspecified), 6.63; with `CNC(=S)NCCCCC(NC(=O)C(Cc1ccc2ccccc2c1)Cc1cccc2ccccc12)C(=O)NC(CC(C)C)C(O)C(F)(F)C(=O)NCCN1CCOCC1` (stereo unspecified), 5.5. `CCC(C)CNC(=O)CC(O)C(CC(C)C)NC(=O)C(CCCCNC(=S)Nc1ccccc1)NC(=O)C(Cc1ccc2ccccc2c1)Cc1cccc2ccccc12` (stereo unspecified) registered a logP of 6.6. `CCC(C)CNC(=O)CC(O)C(CC(C)C)NC(=O)C(CCCCNC(=O)NC)NC(=O)C(Cc1ccc2ccccc2c1)Cc1cccc2ccccc12` (stereo unspecified) returned a logP of 5.63. `CCC(C)CNC(=O)C(F)(F)C(O)C(CC(C)C)NC(=O)C(CCCCNC(=NC#N)SC)NC(=O)C(Cc1ccc2ccccc2c1)Cc1cccc2ccccc12` (stereo unspecified) displayed a logP of 5.51. With `CSC(=NC#N)NCCCCC(NC(=O)C(Cc1ccc2ccccc2c1)Cc1cccc2ccccc12)C(=O)NC(CC(C)C)C(O)CC(=O)NCCN1CCOCC1` (stereo unspecified) the figure was 4.67. With `CNC(=S)NCCCCC(NC(=O)C(CC(=O)N1CCOCC1)Cc1cccc2ccccc12)C(=O)NC(CC(C)C)C(O)CC(=O)NCCN1CCOCC1` (stereo unspecified) the figure was 2.43. `CC(C)CC(NC(=O)C(CCCCNC(=N)N[N+](=O)[O-])NC(=O)C(Cc1cccc2ccccc12)Cc1cccc2ccccc12)C(O)CC(=O)NCCN1CCOCC1` (stereo unspecified) showed a logP of 4.09.

On to `CCC(C)CNC(=O)CC(O)C(CC(C)C)NC(=O)C(CCCCCNC(=N)N[N+](=O)[O-])NC(=O)C(Cc1ccc2ccccc2c1)Cc1cccc2ccccc12` (stereo unspecified), for which the logP was found to be 5.1. `CCC(C)CNC(=O)CC(O)C(CC(C)C)NC(=O)C(CC=CCNC(=S)NC)NC(=O)C(Cc1ccc2ccccc2c1)Cc1cccc2ccccc12` (stereo unspecified) registered a logP of 5.23. The same measure for `CNC(=S)NCCCCC(NC(=O)C(Cc1ccc2ccccc2c1)Cc1cccc2ccccc12)C(=O)NC(CC(C)C)C(O)CC(=O)NC(CC(C)C)C(=O)NCc1ccccc1` (stereo unspecified): 6.7; for `CNC(=S)NCCCCC(NC(=O)C(Cc1ccccc1)NS(=O)(=O)N1CCOCC1)C(=O)NC(CC1CCCCC1)C(O)CC(=O)NCCN1CCOCC1` (stereo unspecified): 2.26. `CC(C)(C)OC(=O)NCC#CCC(NC(=O)C(Cc1ccc2ccccc2c1)Cc1cccc2ccccc12)C(=O)NC(CC1CCCCC1)C(O)CC(=O)NCCN1CCOCC1` (stereo unspecified) gave a logP of 6.

On to `CCC(C)CNC(=O)CC(O)C(CC(C)C)NC(=O)C(CCCCNC(=S)NC)NC(=O)C(Cc1ccc2ccccc2c1)Cc1cccc2ccccc12` (stereo unspecified), for which the logP is 5.71.

The compound `CNC(=S)NCC#CCC(NC(=O)C(Cc1ccccc1)NS(=O)(=O)N1CCOCC1)C(=O)NC(CC1CCCCC1)C(O)CC(=O)NCCN1CCOCC1` (stereo unspecified) had a logP of 2.9. With `CNC(=S)NCC#CCC(NC(=O)C(Cc1ccc2ccccc2c1)Cc1cccc2ccccc12)C(=O)NC(CC1CCCCC1)C(O)CC(=O)NCCN1CCOCC1` (stereo unspecified), the logP was 5.44.

With `CCC(C)CNC(=O)CC(O)C(CC(C)C)NC(=O)C(CCCCNS(=O)(=O)c1ccc(C)cc1)NC(=O)C(Cc1ccc2ccccc2c1)Cc1cccc2ccccc12` (stereo unspecified), the logP was 6.7. `CNC(=S)NCCCCC(NC(=O)C(CC(=O)N1CCOCC1)Cc1cccc2ccccc12)C(=O)NC(CC1CCCCC1)C(O)CC(=O)NCCN1CCOCC1` (stereo unspecified) registered a logP of 1.68.

In the case of `CC(C)CC(NC(=O)C(CCCCNC(=O)OCc1ccccc1)NC(=O)C(Cc1ccccc1)NS(=O)(=O)N1CCOCC1)C(=O)C(F)(F)C(=O)NCCN1CCOCC1` (stereo unspecified), the logP amounted to 2.32.

Compound `CCC(C)CNC(=O)CC(O)C(CC(C)C)NC(=O)C(CCCCCNC(=S)NC)NC(=O)C(Cc1ccc2ccccc2c1)Cc1cccc2ccccc12` (stereo unspecified) yielded a logP of 5.41. Compound `CCC(C)CNC(=O)CC(O)C(CC(C)C)NC(=O)C(CC=CCNC(C)=O)NC(=O)C(Cc1ccc2ccccc2c1)Cc1cccc2ccccc12` (stereo unspecified) registered a logP of 5.56. The same measure for `O=C(CC(O)C(CC1CCCCC1)NC(=O)C(NC(=O)C(Cc1ccccc1)NS(=O)(=O)N1CCOCC1)C1=CN=N1)NCCN1CCOCC1` (stereo unspecified): 2.25. The same measure for `CC(=O)NCC#CCC(NC(=O)C(Cc1ccccc1)NS(=O)(=O)N1CCOCC1)C(=O)NC(CC1CCCCC1)C(O)CC(=O)NCCN1CCOCC1` (stereo unspecified): 2.12. The same measure for `CC(C)CC(NC(=O)C(CCCCNC(=N)N[N+](=O)[O-])NC(=O)C(CC(=O)N1CCOCC1)Cc1cccc2ccccc12)C(O)CC(=O)NCCN1CCOCC1` (stereo unspecified): 1.95; for `CCC(C)CNC(=O)CC(O)C(CC(C)C)NC(=O)C(CCCn1cccc1)NC(=O)C(Cc1ccc2ccccc2c1)Cc1cccc2ccccc12` (stereo unspecified): 7.09; for `CNC(=S)NCCCCC(C(=O)NC(CC1CCCCC1)C(O)C(F)(F)C(=O)NCCN1CCOCC1)C(=O)C(Cc1ccccc1)NS(=O)(=O)N1CCOCC1` (stereo unspecified): 2.93. `CCC(C)CNC(=O)CC(O)C(CC(C)C)NC(=O)C(CCCCNC(C)=O)NC(=O)C(Cc1ccc2ccccc2c1)Cc1cccc2ccccc12` (stereo unspecified) returned a logP of 4.38. The same measure for `CCC(C)CNC(=O)CC(O)C(CC(C)C)NC(=O)C(CCCCNP(=O)(Oc1ccccc1)Oc1ccccc1)NC(=O)C(Cc1ccc2ccccc2c1)Cc1cccc2ccccc12` (stereo unspecified): 7.88; for `CNC(=S)NCCCCC(NC(=O)C(Cc1ccc2ccccc2c1)Cc1cccc2ccccc12)C(=O)NC(CC(C)C)C(O)CC(=O)NCCN1CCOCC1` (stereo unspecified): 3.91. The compound `O=CNCC#CCC(NC(=O)C(Cc1cccc2ccccc12)Cc1cccc2ccccc12)C(=O)NC(CC1CCCCC1)C(O)CC(=O)NCCN1CCOCC1` (stereo unspecified) showed a logP of 5.44. For the compound `CCC(C)CNC(=O)CC(O)C(CC(C)C)NC(=O)C(CCCCN)NC(=O)C(Cc1ccc2ccccc2c1)Cc1cccc2ccccc12` (stereo unspecified), the logP amounted to 5.25.

`CNC(=S)NCCCCC(NC(=O)C(Cc1ccccc1)CS(=O)(=O)C(C)(C)C)C(=O)NC(CC1CCCCC1)C(O)CC(=O)NCCN1CCOCC1` (stereo unspecified) had a logP of 2.64. The same measure for `CC(C)CC(NC(=O)CC(O)C(CC(C)C)NC(=O)C(CCCCNC(=O)OCc1ccccc1)NC(=O)C(Cc1ccc2ccccc2c1)Cc1cccc2ccccc12)C(=O)NCc1ccccc1` (stereo unspecified): 7.69; for `CCC(C)CC(=O)CC(O)C(CC(C)C)NC(=O)C(CCCCNC(N)=O)NC(=O)C(Cc1ccc2ccccc2c1)Cc1cccc2ccccc12` (stereo unspecified): 5.31.
